Reference: patent US6207648A, “Methods of using cytochrome P450 reductase for the enhancement of P450-based anti-cancer gene therapy” (priority 1998, dated 2001)
Entries after “also recorded” stand apart in the source; their conditions may differ. Where two headings read alike, the source gives them in different places.

Columns and labels:
[1] = test system: 9L and 9L-R cells infected with Ad.CMV-2B1; test: Adenovirus-mediated CYP2B1 gene transduction, CPA cytotoxicity (XTT); type: cell-based, rat
Experimental: FIGS. 8A and 8B are graphs depicting much greater cytotoxicity of adenovirus-mediated P450 gene transfer combined with CPA treatment in the case of 9L tumor cells engineered to express RED (FIG. 8B), compared to wild-type 9L cells that express basal RED activity (FIG. 8A). Cells were infected with Ad.CMV-2B1 at multiplicities of infection (MOI) ranging from 50-800, as indicated by the values in parenthesis on the right of each panel. Uninfected cells (UI) were used as controls. At 24 hours post infection, cells were replated at 500 cells per well in duplicate on 96-well plates. CPA was then added at concentrations up to 2 mM. After 5 days of incubation, cell survival was determined by an XTT colorimetric assay.
Adenovirus-mediated CYP2B1 gene transduction: A recombinant adenovirus, Ad.CMV-2B1, carrying the CYP2B1 gene was constructed as described in Chen, L., et al., Cancer Res. 56:1331-1340 (1996). Large scale production of recombinant adenovirus was performed by growth in 293 cells followed by purification by double cesium gradient ultracentrifugation (Graham, F. L. and Prevec, L., "Manipulation of Adenovirus Vectors" in Methods in Molecular Biology:Gene Transfer and Expression Protocols, volume 7, E. J. Murray (ed.), The Human Press, Inc., Clifton, N.J., pages 109-127 (1991)). The titer of purified adenovirus was determined in a spectrophotometer at 260 nm and by plaque assays. Ad.CMV-2B1 was added to the cells plated on 30 mm diameter tissue culture plates at multiplicities of infection (MOI) as indicated in the figure legends. Twenty four hours after viral infection, the infected cells were trypsinized and replated at 500 cells/well onto 96 well tissue culture plates and treated with CPA. Four to seven days after CPA treatment, the number of surviving cells was determined using the XTT assay described above.

[2] = test system: 9L/P450 gliosarcoma cells; test: Growth inhibition assay of 9L/P450 cells, crystal violet (Example 2); type: cell-based, rat; settings: for inhibition at 1000 µM: Rattus norvegicus, 96 h, 1 mM, 4 days
Experimental: Control cells for each cell line received no drug treatment. Relative cell number at the end of the experiment was determined by crystal violet staining as described below in "Material and Methods" of Example 2. Data (mean±SD, n=3) are based on the crystal violet absorbance in drug-treated plates as a percent of the corresponding drug-free controls.
Briefly, culture dishes were washed once with phosphate buffered saline (PBS), stained for 10 minutes with crystal violet (1.25 g crystal violet (Sigma) dissolved in 500 ml containing 50 ml of 37% formaldehyde and 450 ml methanol), and then washed with PBS, twice for 20 minutes per wash. Absorbance values were measured in an SLT Spectra microtiter plate reader using a 595 nm filter. Background absorbance determined from wells containing culture media alone was subtracted from each value.

[3] = test system: human P450 genes expressed in 9L cells; test: Semicarbazide trapping/fluorescence assay for 4-hydroxy metabolites in 9L/P450 cells; type: in vitro ADME; settings: 2 mM, 24 h
Experimental: Each of the indicated 9L cell lines was seeded on a 48-well plate in duplicate at 2×10^4 cells/well. […] Background fluorescence observed in 9L/Babe cells was subtracted from each sample.
Semicarbazide trapping/fluorescence assay for 4-hydroxy metabolites: 9L/P450 cells were seeded on a 48 well plate in duplicate at 2×10^4 cells/ well. […] Culture media, 400 μl, was removed and then treated with 160 μl of ice cold 5.5% (w/v) ZnSO4, 160 μl ice cold saturated Ba(OH)2, and 80 μl ice cold 0.01 M HCl. The mixture was vortexed and then centrifuged at 16,000 g for 15 minutes. 300 μl of the supernatant was transferred under dim light to a clean tube containing 540 μl of water and 160 μl of freshly prepared fluorescent reagent (60 mg 3-aminophenol and 60 mg hydroxylamine-HCl per 10 ml of 1 M HCl). The tubes were vortexed and heated at 90° C. for 20 minutes. Fluorescent readings were obtained at 350 nm (excitation), and 515 nm (emission) using 800 μl of each sample. Fluorescent values were converted to nmol 4-hydroxy metabolite/ml of original culture media based on standard curves generated using 4-hydroperoxy-CPA and then normalized to units of nmol 4-hydroxy metabolite formed per 24 hours per 10^6 cells.

9L/pBabe bystander cells = test: Bystander cytotoxicity/co-culture with cell culture inserts; type: cell-based, rat; settings: for cytotoxicity at 670 µM: Rattus norvegicus, 96 h, 9L/2B6/reductase, 0.67 mM
Experimental: FIGS. 18A and 18B are graphs depicting the bystander cytotoxicity of 9L/2B6/reductase and 9L/2B6 cells. In FIG. 18A, bystander cytotoxicity of 9L/2B6/reductase cells is compared to that of 9L/2B6 cells. In both cases, 9L/pBabe served as the bystander cells. 9L/pBabe cells were plated in duplicate at 10^5 cells/well of a 6-well plate (lower chamber). 9L/2B6/reductase cells or 9L/2B6 cells were plated in 25 mm cell culture inserts (upper chamber) at concentrations ranging from 10^4 to 6×10^5 cells, corresponding to ratios of 0.1 to 6 relative to the bystander 9L/pBabe cells growing in the lower chamber, as shown on the x-axis. Cells were incubated in a total volume of 3 ml Dulbecco's minimal essential medium (DMEM), 10% FBS, containing 1 mM CPA, final CPA concentration.
The experimental design was the same as in FIG. 18A, except that the final drug concentration was 0.67 mM. Data shown for both panels correspond to the survival of 9L/pBabe bystander cells in the lower chamber.
Bystander cytotoxicity/co-culture experiments: 9L/pBabe cells were plated in duplicate at 10^5 cells/well in the lower chamber of a 6-well Falcon co-culture plate (30 mm diameter wells) (Falcon 3046). 9L/2B6/reductase cells were plated in 25 mm cell culture inserts (0.4 μm pore size; Falcon 3090), at dilutions ranging from 0. 1 to 6 times the number of 9L/pBabe cells plated in the lower chamber. […] Relative cell numbers were quantitated 4 days later by crystal violet staining.

[4] = in vivo; cited from earlier work
[5] = test system: 9L gliosarcoma cells (parental, CYP2B1+, CYP2B1+ RED+++); test: In vitro growth inhibition assay, XTT (Example 1); settings: lines PR11, PR7 vs P3, P17; growth inhibition assay
Experimental: Cells (1000/well) seeded in 96-well plates were treated with the indicated concentrations of CPA for 4 days. Corresponding controls received no drug treatment. Cell survival was determined by an XTT calorimetric assay. Data (mean for triplicate samples) were expressed as growth ratio (%), i. e., cell number (XTT activity) in drug treated plates as a percentage of the corresponding drug-free controls.
Cells (500/well) seeded in 96-well plates were treated with 1 mM cyclophosphamide in the absence or presence of the RED inhibitors AADP (0.5 mM) or DPI (5 μM). Corresponding controls received no drug treatment. Cell survival was determined by an XTT colorimetric assay. Data (mean for triplicate samples) are expressed as growth ratio (%), i.e., cell number (XTT activity) in drug treated plates as a percentage of the corresponding drug-free controls and are representative of 2-3 independent experiments. AADP and DPI were added to the cells 30 minutes prior to CPA treatment.
(B) Growth inhibition assay--Cells (1000/well) seeded in 96 well plates were treated with the indicated concentrations of CPA for 4-5 days. Corresponding controls received no drug treatment. Cell survival was determined by an XTT colorimetric assay, a cell proliferation assay that measures mitochondrial dehydrogenase activity of viable cells (Scudiero, D. A., et al., Cancer Res. 48:4827-4833 (1988)).

[6] = test system: 9L/pBabe, 9L/2B6, 9L/hRED and 9L/2B6/hRED gliosarcoma cells; test: Cytotoxicity assay of 9L cells transduced with human RED and/or P450 2B6, normoxic or hypoxic (Example 3)
Experimental: Cells were seeded at 4000 cells/well in 48-well plates and treated with increasing concentrations of CPA for 4 days. Cell growth in comparison to drug-free controls was determined by crystal violet staining and is presented as mean±SD for n=3 replicates.
FIG. 21 is a graph depicting the cytotoxic effects of the bioreductive drug TPZ toward 9L/pBabe control cells and 9L cells transduced with retroviruses encoding human RED and/or P450 2B6 under normoxic culture conditions. Cells were seeded at 4000 cells/well in 48-well plates and treated with increasing concentrations of TPZ for 4 days. Cell growth in comparison to drug-free controls was determined by crystal violet staining and is presented as mean±SD for n=3 replicates.
FIG. 22 is a graph depicting the cytotoxicity of increasing concentrations of TPZ under hypoxic conditions (1% O2) toward 9L tumor cells transduced with retroviruses encoding P450 2B6 and/or human RED. 9L/pBabe cells served as controls. Cells were seeded at 4000 cells/well in 48-well plates and treated with increasing concentrations of TPZ for 4 days. Cell growth in comparison to drug-free controls was determined by crystal violet staining and is presented as mean±SD for n=3 replicates.
FIGS. 24A, 24B and 24C are graphs depicting the cytotoxic effects of TPZ (5 or 10 μM, as indicated) in combination with increasing concentrations of CPA under normoxic culture conditions (19.6% O2, 5% CO2). The data shown were obtained using 9L/2B6/hRED cells (FIG. 24A), 9L/hRED cells (FIG. 24B) and 9L/pBabe (control) cells (FIG. 24C). Data were compared to the cytotoxicity of increasing concentrations of CPA alone (i. e., in the absence of TPZ) measured using the same pools of tumor cells. Cells were seeded at 4000 cells/well in 48-well plates and then treated with the indicated drug concentrations for 4 days. Cell growth in comparison to drug-free controls (i.e., in the absence of CPA and TPZ) was determined by crystal violet staining and is presented as mean±SD for n=3 replicates.
FIGS. 25A, 25B and 25C are graphs depicting the cytotoxic effects of TPZ (0.5 or 1.5 μM, as indicated) in combination with increasing concentrations of CPA under hypoxic culture conditions (1% O2, 5% CO2). The data shown were obtained using 9L/2B6/hRED cells (FIG. 25A), 9L/hRED cells (FIG. 25B) and 9L/pBabe (control) cells (FIG. 25C). Data were compared to the cytotoxicity of increasing concentrations of CPA alone (i.e., in the absence of TPZ) measured using the same pools of tumor cells. Cells were seeded at 4000 cells/well in 48-well plates and then treated with the indicated drug concentrations for 4 days. Cell growth in comparison to drug-free controls (i.e., in the absence of CPA and TPZ) was determined by crystal violet staining and is presented as mean±SD for n=3 replicates.
Cytotoxicity assays: To evaluate the chemosensitivity of the P450- and P450/RED-expressing 9L tumor cells, cells were plated in triplicate at 4000 cells/well of a 48-well plate 18-24 hours prior to drug treatment. Cells were then treated with drugs (0 to 1 mM CPA or 0 to 50 μM TPZ, as indicated in each experiment) and placed in a tissue culture incubator maintained under hypoxic conditions (1% O2, 5% CO2, 94% N2) or under normoxic conditions (19.6% O2, 5% CO2, 75.4% N2) for a period of 4 days. 9L/pBabe cells, which were transduced with the empty retroviral plasmid pBabe-puro (see, Example 2), served as controls. Cells remaining after this time were quantitated using a crystal violet/alcohol-extraction assay, as described under Example 2. Data are presented as cell number relative to drug-free controls, mean±SD values for triplicate samples, unless indicated otherwise.

Structure (SMILES): O=P1(N(CCCl)CCCl)NCCCO1 (centres unmarked) [CPA, cyclophosphamide]
- CPA sensitivity of cells infected with Ad.CMV-2B1 ([1]; MOI 50 to 800, most striking in RED overexpressing cells): acquired CPA sensitivity
- enhancement of drug cytotoxicity in Ad.CMV-2B1-infected cells at higher viral multiplicities ([1]; RED-overexpressing 9L cells): further enhanced
- CPA sensitivity of 9L cells infected with lacZ adenovirus ([1]; control experiment): did not sensitize the cells
- enhancement of drug cytotoxicity in Ad.CMV-2B1-infected cells at higher viral multiplicities ([1]; parental 9L cells, MOI above 200): not further enhanced
- effect of P450 reductase overexpression on cytotoxicity ([2]; 9L/2B6 and 9L/2C18-Met cells, FIG. 15): markedly increased the cytotoxicity
- cytotoxicity with RED transduction alone, in absence of P450 ([2]; 9L/RED, FIG. 15): did not confer CPA or IFA cytotoxicity
- sensitivity of P450-negative cells ([2]; 9L/wt and 9L/pBabe, millimolar concentrations): insensitive
- inhibition at 1000 µM ([2]; 9L/2B6): > 95%
- inhibition at 1000 µM ([2]; 9L/2C9 and 9L/2C18-Thr): ~60%
- inhibition at 1000 µM ([2]; 9L/2C19 and 9L/2C18-Met): 75 to 85%
- inhibition at 1000 µM ([2]; 9L/3A4): ~90%
- efficiency of P450 genes in chemosensitizing 9L cells to CPA ([2]; six human P450 genes): 2B6>2C18-Met~3A4>others
- effect of RED transduction on drug activation in 9L parental cells [3]: did not stimulate drug activation
- effect of RED transduction on cytotoxic metabolites accumulating in the culture medium ([3]; CYP2B6 and CYP2C18-Met cells): significant increase in cytotoxic metabolites
- bystander killing of 9L/pBabe cells by 9L/2B6/reductase vs 9L/2B6 cells (9L/pBabe bystander cells; 1 mM CPA, cell ratio for 50% bystander cytotoxicity): approximately 3 fold
- bystander cytotoxic effect on non-P450-expressing 9L cells (9L/pBabe bystander cells; 2B6 and RED-transduced tumor cells): strong cell contact-independent bystander cytotoxic effect; also recorded: striking bystander cytotoxic effect
- cytotoxicity at 670 µM (9L/pBabe bystander cells; P450:non-P450 ratio approximately 0.5-1, read-out: bystander toxicity toward non-P450 tumor cells): ~40%
- cytotoxicity at 670 µM (9L/pBabe bystander cells; cell ratio >3, read-out: bystander toxicity toward non-P450 cells): ≥ 80%
- side effects of systemic distribution of drug and alkylating metabolites [4]: cardiotoxicity, renal toxicity, marrow suppression, and neurotoxoxicity
- cytotoxic response of CYP2B1+ cells on RED overexpression [5]: significantly enhanced the cytotoxic response
- effect of hypoxia on CPA cytotoxicity toward 9L/2B6/RED or 9L/2B6 cells ([6]; 1% O2): does not significantly alter the cytotoxicity
- CPA cytotoxicity on retroviral transduction of hRED ([6]; 9L/2B6/hRED vs 9L/2B6, normoxic): large increase in CPA cytotoxicity
- CPA cytotoxicity in 9L/hRED and 9L/pBabe cells ([6]; normoxic): No CPA cytotoxicity was observed
